According to PubChem BioAssay (NCI):
“And” between values parts separate entries of the source, which are not always exact repeats. Equal entries are not always repeated.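 Interpolation was linear, between the two tested concentrations surrounding the appropriate level; five concentrations were tested over 48 hours in 96-well plates. At the GI50, growth is halved. TGI marks complete inhibition of growth.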

Assays:
Assay in all cases: NCI-60 cell line screen, 48 h
CCRF-CEM leukemia = system: CCRF-CEM leukemia
HCT-116 colon = system: HCT-116 colon
IGROV1 ovarian = system: IGROV1 ovarian
MDA-MB-231 breast = system: MDA-MB-231 breast
MDA-MB-435 = system: MDA-MB-435
NCI-H226 lung = system: NCI-H226 lung
NCI-H23 lung = system: NCI-H23 lung
NCI-H522 lung = system: NCI-H522 lung
RXF 393 renal = system: RXF 393 renal
UO-31 renal = system: UO-31 renal

Structure (SMILES)	TGI (CCRF-CEM leukemia)	TGI (HCT-116 colon) [µM]	TGI (IGROV1 ovarian) [µM]	TGI (MDA-MB-231 breast)	TGI (MDA-MB-435)	TGI (NCI-H226 lung)	TGI (NCI-H23 lung) [µM]	TGI (NCI-H522 lung) [µM]	TGI (RXF 393 renal) [µM]	TGI (UO-31 renal)	GI50 (IGROV1 ovarian) [µM]	GI50 (MDA-MB-231 breast) [µM]	GI50 (MDA-MB-435) [µM]	GI50 (NCI-H23 lung) [µM]	GI50 (RXF 393 renal) [µM]	GI50 (UO-31 renal) [µM]	GI50 (CCRF-CEM leukemia) [µM]	GI50 (NCI-H226 lung) [µM]	GI50 (NCI-H522 lung) [µM]
N#Cc1c(-c2ccc(Cl)cc2)cc(-c2ccc(Nc3ccnc4cc(Cl)ccc34)cc2)[nH]c1=O	31.6 µM	> 100	> 100	> 67.4 µM	> 100 µM	> 100 µM	> 75.9	> 100	> 68	> 100 µM									
CC(C(=O)OCc1ccccc1)N(Cc1ccccc1)Cc1ccccc1 (stereo not given)	> 100 µM	> 100	> 100				> 100	> 100	88	> 100 µM									
O=C(NNC(=S)Nc1ccccc1)c1nsc2ccccc12	49 µM	> 100	> 100				> 100		> 100	75.4 µM									
COC(=O)[C@@H]1CS(=O)(=O)C(C(C)C)N1C(C)=O (stereo not given in full)		> 100	> 100	> 100 µM	> 100 µM	> 100 µM	> 100	> 100	> 100	> 100 µM									
O=C(CCN1CCOCC1)/C(=C/c1ccccc1)c1ccccc1		12.3	22.8			21.3 µM	14.1	3.84	3.4	28.1 µM									
O=c1c2cc(C(F)(F)F)ccc2sc2c(NCCCNCCO)nc3ccccc3c12			2.62	2.63 µM	3.04 µM		3.02		2.82	2.74 µM	1.23	1.28	1.62	1.58	1.4	1.37			
C#CC(O)(c1nc2ccccc2s1)c1nc2ccccc2s1	79 µM	30.2	31.6	39.7 µM	87.6 µM		56.1	39.7	89.7	29.4 µM									
COc1ccccc1OCC(COC(=O)Nc1ccccc1)OC(=O)Nc1ccccc1 (stereo not given)	> 100 µM	> 100	> 100			> 100 µM	> 100	> 100	46.8	> 100 µM									
CCc1cccc2c3c([nH]c12)-c1ccccc1NC(=O)C3	> 100 µM		> 100	> 100 µM	> 100 µM	> 100 µM	> 100			> 100 µM									
Cc1c(CNc2ccc(C(=O)NC(CCCNC(=O)c3ccccc3C(=O)O)C(=O)O)cc2)cnc2nc(N)nc(N)c12 (stereo not given)				> 100 µM		2.91 µM			2.15			> 100			0.279		> 100	0.00248	0.00428
C(/C=N/NC1=NCCCCN1)=N\NC1=NCCCCN1	> 100 µM	> 100	> 100	> 100 µM	> 100 µM	> 100 µM	> 100	> 100		> 100 µM									
Cc1ccc(S(=O)(=O)NC(=O)NC(Cc2ccc(O)cc2)C(=O)O)cc1 (stereo not given)	> 100 µM	> 100	> 100	> 100 µM			> 100	> 100	> 100	> 100 µM									
Clc1sc(Cl)c2c1[C@@H](Cl)C[C@@H]2Cl	> 100 µM	> 100	> 100	> 100 µM	> 100 µM	> 100 µM	> 100	58.2		> 100 µM									
C1=NCCNCCNCCN=Cc2ccc(cc2)OCc2cccc(n2)COc2ccc1cc2	> 100 µM	> 100	> 100	> 100 µM	> 100 µM	> 100 µM	> 100		> 100	> 100 µM									
O=C(COc1ccc(OCC(=O)N2C(=O)CC(=O)N(c3ccc(Cl)cc3)C2=S)cc1)N1C(=O)CC(=O)N(c2ccc(Cl)cc2)C1=S		25.2	> 100	> 100 µM	> 100 µM	85.7 µM	> 100	53.8	83.1	> 100 µM									
Fc1cccc(F)c1C1SCc2nc3cc(Cl)c(Cl)cc3n21 (stereo not given)	> 100 µM	> 100	> 100	> 100 µM	> 100 µM		> 100	> 100	> 100	> 100 µM									
O=P1(N2CCOCC2)OCCO1	> 100 µM	> 100	> 100		> 100 µM		> 100	> 100	> 100	> 100 µM									

Structure (SMILES)	TGI (CCRF-CEM leukemia)	TGI (HCT-116 colon) [µM]	TGI (IGROV1 ovarian) [µM]	TGI (MDA-MB-231 breast)	TGI (MDA-MB-435)	TGI (NCI-H226 lung)	TGI (NCI-H23 lung) [µM]	TGI (NCI-H522 lung) [µM]	TGI (RXF 393 renal) [µM]	TGI (UO-31 renal)	GI50 (IGROV1 ovarian) [µM]	GI50 (MDA-MB-231 breast) [µM]	GI50 (MDA-MB-435) [µM]	GI50 (NCI-H23 lung) [µM]	GI50 (RXF 393 renal) [µM]	GI50 (UO-31 renal) [µM]	GI50 (CCRF-CEM leukemia) [µM]	GI50 (NCI-H226 lung) [µM]	GI50 (NCI-H522 lung) [µM]
CC(C)(C)C1CCC2c3c([nH]c4ccccc34)C3C(=O)N(c4ccc(C#N)cc4)C(=O)C3C2C1 (stereo not given)		18	> 100	35.2 µM	> 100 µM	42.1 µM	23.6		15.4	33.2 µM									
C#CC[C@@]12CC(=O)C[C@@H]1CCC1(C2)OCCO1 (tested in a mixture with another compound)	> 100 µM	> 100	> 100			> 100 µM	> 100	> 100	> 100	> 100 µM									
COc1ccc(C2C3=C(N=C4SC(C(C)=O)=C(C)N42)c2ccccc2CC3)cc1 (stereo not given)	> 100 µM	> 100	> 100	> 100 µM	> 100 µM	> 100 µM	> 100		> 100	> 100 µM									
NS(=O)(=O)c1nc(S(=O)(=O)O)c2[nH]cnc2n1		> 100	> 100	> 100 µM	> 100 µM	> 100 µM	> 100	> 100	> 100	> 100 µM									
COc1ccc(C#Cn2nnc3ccccc32)cc1		> 100	> 100	> 100 µM	> 100 µM	> 100 µM	> 100	> 100	> 100	4.47 µM									
Cc1cc(S(=O)(=O)Nc2nc3ncccc3[nH]2)c(S)cc1Cl	> 100 µM	> 100	> 100	> 100 µM	> 100 µM	> 100 µM	> 100	> 100	> 100										
COC(C/C(=C/CO[Si](C(C)C)(C(C)C)C(C)C)C(=O)N(COCC[Si](C)(C)C)c1ccccc1I)OC	> 100 µM	46.2	27.4	> 100 µM	29.1 µM	> 100 µM	79.5			> 100 µM									
COc1ccccc1-n1c(=O)n(C)c(=O)n1C(C)(C)C	> 100 µM	> 100		> 100 µM	> 100 µM	> 100 µM	> 100	> 100	> 100	> 100 µM									
Cc1nc2cc(F)c(F)cc2[nH]c1=O	> 100 µM	> 100		> 100 µM	> 100 µM	> 100 µM	> 100		> 100	> 100 µM									
N#Cc1nc2cc(Cl)ccc2nc1N1CCN(c2ccc([N+](=O)[O-])cc2)CC1		> 100		> 100 µM	> 100 µM		> 100		> 100	> 100 µM									
Cc1cc(C)c2c(c1)CC1(Cc3cc(C)c(C)cc3C1=O)C2=O (stereo not given)	> 100 µM		> 100	> 100 µM	> 100 µM	> 100 µM		> 100	> 100	> 100 µM									
C#C[C@]1(O)CC[C@H]2[C@@H]3CCC4=C/C(=N/NC(=O)c5cccc6c(=O)c7ccccc7[nH]c56)CCC4[C@H]3CC[C@@]21C (stereo not given in full)	> 100 µM	> 100	> 100	> 100 µM	> 100 µM	> 100 µM	> 100	86		76.5 µM									
CSC(SC)=C(C#N)C(=O)Nc1cccc(Cl)c1	> 100 µM	> 100	> 100	> 100 µM	> 100 µM	> 100 µM		43.8	> 100										
O=C(O)CCC(=O)OCN1C(=O)C2C3C=CC(C2C1=O)C1C2C(=O)N(COC(=O)CCC(=O)O)C(=O)C2C31 (stereo not given)	> 81.1 µM	> 54.3	> 100			> 100 µM	> 100	> 85.8	> 100	> 100 µM									
CCC1(O)CC(OC2CC(N(C)C)C(OC3CC(O)C(OC4OC(C)C(=O)C=C4N)C(C)O3)C(C)O2)c2c(cc3c(c2O)C(=O)c2c(O)cccc2C3=O)C1C(=O)OC (stereo not given)	0.131 µM and 0.818 µM	1.79		2.03 µM and 2.09 µM	0.282 µM and 0.05 µM	0.347 µM and 0.0894 µM	2.95	0.319		0.96 µM and 0.809 µM		0.0369		0.0144		0.106		0.0161	
Cc1cc2[nH]c3c(C#N)c(-c4ccccc4)c(N=Nc4ccc(F)cc4)c(=O)n3c2cc1C	> 100 µM	> 100		> 100 µM	> 100 µM	> 100 µM	> 100	> 100	> 100	> 100 µM									
CN(Cc1cnc2nc(N)nc(N)c2n1)c1ccc(C(=O)NC23CC4CC(CC(C4)C2)C3)cc1	52 µM	> 100	21.8	39.5 µM	31.6 µM	27.3 µM	22.3		40.4	24.1 µM									
